In US9079866B2, “Flap modulators” (JANSSEN PHARMACEUTICA NV, priority 2013, dated 2015):
Counter-ions that a name gives are not always drawn.

Each compound was assayed against human FLAP (Homo sapiens (Human), UniProt P20292) (assay: FLAP binding assay (HTRF format)). Conditions: human FLAP wild type, HTRF format; average of two plates, duplicates.
human FLAP, sequence (P20292 whole entry): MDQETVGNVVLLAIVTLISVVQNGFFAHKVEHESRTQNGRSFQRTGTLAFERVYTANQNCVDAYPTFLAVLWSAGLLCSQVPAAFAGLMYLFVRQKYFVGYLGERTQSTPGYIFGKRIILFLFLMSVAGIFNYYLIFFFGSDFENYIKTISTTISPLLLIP
In short: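 Read-out is the HTRF ratio. Each reported figure averages two assay plates on which samples were tested in duplicate.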
For `Nc1cnc(-c2ccc(-c3ccccc3NS(N)(=O)=O)cc2F)cn1` [Example 33, N-[4′-(5-Aminopyrazin-2-yl)-3′-fluorobiphenyl-2-yl]sulfamide], the Ki was 304 nM.
`CC(C)(C)S(=O)(=O)c1ccccc1-c1ccc(-c2cnc(N)nc2)c(F)c1` [Example 293, 5-[2′-(tert-Butylsulfonyl)-3-fluorobiphenyl-4-yl]pyrimidin-2-amine trifluoroacetic acid salt] was tested, and the Ki was over 10000 nM.
For `Nc1ncc(-c2ccc(-c3ccccc3S(N)(=O)=O)cc2F)cn1` [Example 302, 4′-(2-Aminopyrimidin-5-yl)-3′-fluorobiphenyl-2-sulfonamide trifluoroacetic acid salt], the Ki was 2500 nM.
Compound `CN1C(C)(C)CC(NS(=O)(=O)c2ccccc2-c2ccc(-c3cnc(N)cn3)c(F)c2)CC1(C)C` [Example 30, 4′-(5-Aminopyrazin-2-yl)-3′-fluoro-N-(1,2,2,6,6-pentamethylpiperidin-4-yl)biphenyl-2-sulfonamide] has a Ki of 95 nM.

Same assay, conditions: read-out: FLAP Binding wild type HTRF Ki
`Nc1ncc(-c2ccc(-c3ccccc3S(=O)(=O)c3ncncc3N)cc2F)cn1` [Example 337, 5-{2′-[(5-Aminopyrimidin-4-yl)sulfonyl]-3-fluorobiphenyl-4-yl}pyrimidin-2-amine hydrochloride] showed a Ki of 2500 nM.
For `Nc1ncc(-c2ccc(-c3cccnc3S(=O)(=O)C3CCNCC3)cc2F)cn1` [Example 827, 5-{2-Fluoro-4-[2-(piperidin-4-ylsulfonyl)pyridin-3-yl]phenyl}pyrimidin-2-amine formic acid salt], the Ki was over 10000 nM.
`CS(=O)(=O)c1ccccc1-c1ccc(-c2cnc(N)nc2)c(F)c1` [Example 304, 5-[3-Fluoro-2′-(methylsulfonyl)biphenyl-4-yl]pyrimidin-2-amine trifluoroacetic acid salt] was tested, and the Ki was over 10000 nM.

Same assay, conditions: wild type FLAP, HTRF format
Compound `Nc1ncc(-c2ccc(-c3ccccc3S(=O)(=O)c3cnccn3)cc2F)cn1` [Example 719, 5-[3-Fluoro-2′-(pyrazin-2-ylsulfonyl)biphenyl-4-yl]pyrimidin-2-amine] has a Ki of over 10000 nM.
In the case of `Nc1cnc(-c2ccc(-c3ccccc3S(N)(=O)=O)cc2O)cn1` [Example 592, 4′-(5-Aminopyrazin-2-yl)-3′-hydroxybiphenyl-2-sulfonamide], the Ki is reported as over 10000 nM.
`Nc1cnc(-c2ccc(-c3cccnc3OCC3CCNC3)cc2F)cn1` (stereo not drawn) [Example 407, 5-{2-Fluoro-4-[2-(pyrrolidin-3-ylmethoxy)pyridin-3-yl]phenyl}pyrazin-2-amine] gave a Ki of over 10000 nM.
`Nc1ncc(-c2ccc(-c3ccccc3C(=O)N3CCS(=O)(=O)CC3)cc2F)cn1` [Example 516, 5-{2′-[(1,1-Dioxidothiomorpholin-4-yl)carbonyl]-3-fluorobiphenyl-4-yl}pyrimidin-2-amine] was tested, and the Ki was over 10000 nM.
For `CNS(=O)(=O)c1ccccc1-c1ccc(-c2ccc(N)nc2)c(F)c1` [Example 661, 4′-(6-Aminopyridin-3-yl)-3′-fluoro-N-methyl-[1,1′-biphenyl]-2-sulfonamide], the Ki was about 2490 nM.
In the case of `Nc1cnc(-c2ccc(-c3ccccc3OC3CCNCC3)cc2F)cn1` [Example 630, 5-[3-Fluoro-2′-(piperidin-4-yloxy)biphenyl-4-yl]pyrazin-2-amine], the Ki is reported as 1900 nM.
Compound `Nc1ncc(-c2ccc(-c3ccccc3OCC(=O)O)cc2F)cn1` [Example 644, {[4′-(2-Aminopyrimidin-5-yl)-3′-fluorobiphenyl-2-yl]oxy}acetic acid] has a Ki of over 10000 nM.
Compound `CNC(=O)c1ccccc1-c1ccc(-c2cnc(N)cn2)c(F)c1` [Example 510, 4′-(5-Aminopyrazin-2-yl)-3′-fluoro-N-methylbiphenyl-2-carboxamide] has a Ki of 1940 nM.
`Nc1ncc(-c2ccc(-c3cccnc3N)cc2F)cn1` [Example 409, 5-[4-(2-Aminopyridin-3-yl)-2-fluorophenyl]pyrimidin-2-amine] gave a Ki of over 10000 nM.
For `Nc1ncc(-c2ccc(-c3ccccc3S(=O)(=O)CC3CC3)cc2F)cn1` [Example 728, 5-{2′-[(Cyclopropylmethyl)sulfonyl]-3-fluorobiphenyl-4-yl}pyrimidin-2-amine], the Ki was 781 nM.
With `Nc1cnc(-c2ccc(-c3ccccc3C(=O)N3CC(O)C3)cc2F)cn1` [Example 755, 1-{[4′-(5-Aminopyrazin-2-yl)-3′-fluorobiphenyl-2-yl]carbonyl}azetidin-3-ol] the Ki was 940 nM.
`Nc1cnc(-c2ccc(-c3ccccc3N3CCCC3=O)cc2F)cn1` [Example 860, 1-[4′-(5-Aminopyrazin-2-yl)-3′-fluorobiphenyl-2-yl]pyrrolidin-2-one] was tested, and the Ki was about 1480 nM.
For `Nc1ncc(-c2ccccc2-c2cnc(-c3cnc(N)nc3)c(F)c2)cn1` [Example 854, 5-{2-[6-(2-Aminopyrimidin-5-yl)-5-fluoropyridin-3-yl]phenyl}pyrimidin-2-amine], the Ki was 1280 nM.
`COc1ccccc1-c1ccc(-c2cnc(N)nc2)nc1` [Example 678, 5-[5-(2-Methoxyphenyl)pyridin-2-yl]pyrimidin-2-amine] gave a Ki of over 10000 nM.
For `NCC1(S(=O)(=O)c2ccccc2-c2ccc(-c3cnc(N)nc3)c(F)c2)CCCC1` [Example 740, 5-(2′-{[1-(Aminomethyl)cyclopentyl]sulfonyl}-3-fluorobiphenyl-4-yl)pyrimidin-2-amine], the Ki was over 10000 nM.
`NCCOc1ccccc1-c1ccc(-c2cnc(N)nc2)c(F)c1` [Example 641, 5-[2′-(2-Aminoethoxy)-3-fluorobiphenyl-4-yl]pyrimidin-2-amine] showed a Ki of over 10000 nM.
For `Nc1cnc(-c2ccc(-c3ccccc3C(=O)O)cc2F)cn1` [Example 485, 4′-(5-Aminopyrazin-2-yl)-3′-fluorobiphenyl-2-carboxylic acid], the Ki was over 10000 nM.
`Nc1ncc(-c2ccc(-c3ccccc3C(=O)N3CC[C@@H](O)C3)cc2F)cn1` [Example 770, (3R)-1-{[4′-(2-Aminopyrimidin-5-yl)-3′-fluorobiphenyl-2-yl]carbonyl}pyrrolidin-3-ol] gave a Ki of over 10000 nM.
Work on `C[C@H]1COCCN1C(=O)c1ccccc1-c1ccc(-c2cnc(N)nc2)c(F)c1` [Example 778, 5-(3-Fluoro-2′-{[(3S)-3-methylmorpholin-4-yl]carbonyl}biphenyl-4-yl)pyrimidin-2-amine] yielded a Ki of over 10000 nM.
`NC(=O)Nc1ccccc1-c1ccc(-c2cnc(N)cn2)c(F)c1` [Example 460, 1-[4′-(5-Aminopyrazin-2-yl)-3′-fluorobiphenyl-2-yl]u rea] showed a Ki of over 10000 nM.
Work on `C[S+]([O-])c1ccccc1-c1ccc(-c2cnc(N)cn2)c(F)c1` (racemic) [Example 700, racemic 5-[3-Fluoro-2′-(methylsulfinyl)biphenyl-4-yl]pyrazin-2-amine] yielded a Ki of over 10000 nM.
With `Nc1cnc(-c2ccc(-c3ccccc3C(=O)NC3CCCCC3)cc2F)cn1` [Example 508, 4′-(5-Aminopyrazin-2-yl)-N-cyclohexyl-3′-fluorobiphenyl-2-carboxamide] the Ki was 790 nM.
`CC1CN(C(=O)c2ccccc2-c2ccc(-c3cnc(N)nc3)c(F)c2)CC(C)O1` (mixture of isomers) [Example 780, 5-{2′-[(2,6-Dimethylmorpholin-4-yl)carbonyl]-3-fluorobiphenyl-4-yl}pyrimidin-2-amine (Diastereoisomeric Mixture)] showed a Ki of over 10000 nM.
For `Nc1ncc(-c2ccc(-c3ccccc3C(=O)N3CCOCC3)cc2F)cn1` [Example 499, 5-[3-Fluoro-2′-(morpholin-4-ylcarbonyl)biphenyl-4-yl]pyrimidin-2-amine], the Ki was 433 nM.
`CCN(CC)C(=O)CS(=O)(=O)c1ccccc1-c1ccc(-c2cnc(N)nc2)c(F)c1` [Example 600, 2-{[4′-(2-Aminopyrimidin-5-yl)-3′-fluorobiphenyl-2-yl]sulfonyl}-N,N-diethylacetamide] was tested, and the Ki was over 10000 nM.
Compound `Nc1ncc(-c2ccc(-c3ccccc3C(=O)N3CCC[C@@H](O)C3)cc2F)cn1` [Example 764, (3R)-1-{[4′-(2-Aminopyrimidin-5-yl)-3′-fluorobiphenyl-2-yl]carbonyl}piperidin-3-ol] has a Ki of over 10000 nM.
For `CC(=O)Nc1ccccc1-c1ccc(-c2cnc(N)cn2)c(F)c1` [Example 459, N-[4′-(5-Aminopyrazin-2-yl)-3′-fluorobiphenyl-2-yl]acetamide], the Ki was over 10000 nM.
With `C[C@@H](CO)NC(=O)c1ccccc1-c1ccc(-c2cnc(N)cn2)c(F)c1` [Example 513, 4′-(5-Aminopyrazin-2-yl)-3′-fluoro-N-[(1S)-2-hydroxy-1-methylethyl]biphenyl-2-carboxamide] the Ki was over 10000 nM.
In the case of `Nc1cnc(-c2ccc(-c3ccccc3OC(F)(F)F)cc2F)cn1` [Example 475, 5-[3-Fluoro-2′-(trifluoromethoxy)biphenyl-4-yl]pyrazin-2-amine], the Ki is reported as 750 nM.

What follows are compounds tested on leukotriene pathway in human whole blood (LTB4 levels) (assay: Human whole blood assay (A23187-stimulated LTB4)). Conditions: Homo sapiens, human whole blood diluted 1:1 in RPMI, A23187-stimulated LTB4; read-out: LTB4 IC50 1:1.
Format: cell-based
Experimental: The ability of the compounds of the present invention to treat a FLAP-mediated disease and/or disorder, or associated symptoms or complications thereof, was determined using the following procedures. Binding assay data represent the average value obtained from two different assay plates, with samples run in duplicate on each plate. Human whole blood assay data represent a single replicate on an assay plate using whole blood from at least one healthy donor.
An in vitro cellular assay was performed using human whole blood collected in heparin-containing tubes, which was used to test the ability of compounds to modulate the leukotriene pathway in human whole blood. The blood was diluted 1:1 in RPMI medium, pre-incubated for 15 min at 37° Celsius with test compounds at various concentrations, and then stimulated with calcium ionophore, A23187 (7 μg/mL), for 30 min at 37° Celsius. The samples were then centrifuged and plasma was removed. The plasma was diluted in assay buffer and LTB4 levels were measured using a commercial kit (Enzo Life Sciences). The concentration of each compound that was required for half-maximal inhibition (modulation) of recombinant enzyme activity (IC50) was calculated by a 4-parameter equation using the program GraphPad Prism (GraphPad software).
For `NC1CCN(S(=O)(=O)c2ccccc2-c2ccc(-c3cnc4c(c3)OCCN4)c(F)c2)CC1` [Example 389, 1-{[4′-(3,4-Dihydro-2H-pyrido[3,2-b][1,4]oxazin-7-yl)-3′-fluorobiphenyl-2-yl]sulfonyl}piperidin-4-amine], the IC50 was 137 nM.
`CC(CO)NS(=O)(=O)c1ccccc1-c1ccc(-c2cnc(N)cn2)c(F)c1` (stereo in doubt) [Example 32, 4′-(5-Aminopyrazin-2-yl)-3′-fluoro-N-[(1S)-2-hydroxy-1-methylethyl]biphenyl-2-sulfonamide] was tested, and the IC50 was 30 nM.
`Nc1ncc(-c2ccc(-c3ccccc3S(=O)(=O)N3CCN(C4CC4)CC3)cc2F)cn1` [Example 281, 5-{2′-[(4-Cyclopropylpiperazin-1-yl)sulfonyl]-3-fluorobiphenyl-4-yl}pyrimidin-2-amine trifluoroacetic acid salt] showed an IC50 of 44 nM.
